pIC50: −log10 of the molar value.
How the values were obtained:
[1] = test system: cultured human mast cells (CHMC); assay: CHMC low cell density IgE activation: tryptase assay; format: cell-based; conditions: IgE activation
In short: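 Anti-IgE-driven degranulation of cultured human mast cells at low density, 1000–1500 cells/well, was induced over 30 min at 37 °C. It was scored by supernatant tryptase activity on a fluorogenic substrate.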

[2] = test system: cultured human mast cells (CHMC); assay: CHMC low cell density ionomycin activation: tryptase assay; format: cell-based; conditions: read-out: LD Tryptase, CHMC, Iono, 3 pt
[3] = low cell density, 3 pt, read-out: LD Tryptase, CHMC, IgE, 3 pt
[4] = low cell density, 8 pt, read-out: LD Tryptase, CHMC, IgE, 8 pt
[5] = Homo sapiens, Mast cell, low cell density, 3 pt, read-out: LD Tryptase, CHMC, IgE, 3 pt
[6] = Homo sapiens, Mast cell, low cell density, 3 pt
[7] = Homo sapiens, Mast cell, low cell density, 8 pt, read-out: LD Tryptase, CHMC, IgE, 8 pt
[8] = Homo sapiens, Mast cell, low cell density CHMC, tryptase release, 3 point, read-out: LD Tryptase, CHMC, IgE, 3 pt
[9] = Homo sapiens, Mast cell, low cell density CHMC, tryptase release, 3 point
[10] = low cell density CHMC, tryptase release, 3 point, read-out: LD Tryptase, CHMC, IgE, 3 pt
[11] = low cell density CHMC, tryptase release, 3 point
[12] = Homo sapiens, Mast cell, low cell density CHMC, tryptase release, 8 point, read-out: LD Tryptase, CHMC, IgE, 8 pt

| Structure (SMILES) | pIC50 [1, 5] | pIC50 [2, 6] | pIC50 [1, 8] | pIC50 [2, 9] | other results |
| --- | --- | --- | --- | --- | --- |
| Cc1cc(C)cc(Nc2ncc(F)c(Nc3ccc(OCCO)nc3)n2)c1 [Compound 504, N2-(3,5-Dimethylphenyl)-5-fluoro-N4-[2-(2-hydroxyethyleneoxy)pyrid-5-yl]-2,4-pyrimidinediamine] |  |  |  |  | pIC50 [1, 3]: > 5.00; pIC50 [1, 4]: > 5.00; pIC50 ([2]; low cell density, 3 pt): < 5.00 |
| COc1ccc(Nc2ncc(F)c(Nc3ccc(OCCO)nc3)n2)cc1Cl [Compound 505, N2-(3-Chloro-4-methoxyphenyl)-5-fluoro-N4-[2-(2-hydroxyethyleneoxy)pyrid-5-yl]-2,4-pyrimidinediamine] |  |  |  |  | pIC50 [1, 3]: > 5.00; pIC50 [1, 4]: > 5.00; pIC50 ([2]; low cell density, 3 pt): < 5.00 |
| C=CCNc1ncc(F)c(N(C)c2ccc3c(c2)OCCO3)n1 [Compound 506, N2-Allyl-N4-(3,4-ethylenedioxyphenyl)-5-fluoro-N4-methyl-2,4-pyrimidinediamine] | < 5.00 | < 5.00 |  |  |  |
| COc1cc(Nc2ncc(F)c(Nc3ccc(C)cn3)n2)cc(OC)c1 [Compound 508, N2-(3,5-Dimethoxyphenyl)-5-fluoro-N4-(3-methylpyrid-6-yl)-2,4-pyrimidinediamine] | > 5.00 | < 5.00 |  |  | pIC50 [1, 7]: > 5.00 |
| Cc1ccc(Nc2nc(Nc3cc(C)cc(C)c3)ncc2F)nc1 [Compound 509] | > 5.00 | < 5.00 |  |  | pIC50 [1, 7]: > 5.00 |
| Fc1cnc(Nc2cccc(-c3ncon3)c2)nc1Nc1ccc2c(c1)OCCO2 [Compound 512] | > 5.00 | < 5.00 |  |  |  |
| CC1(C)Oc2ccc(Nc3nc(Nc4cccc(-c5ncon5)c4)ncc3F)cc2NC1=O [Compound 514, N4-(2,2-Dimethyl-3-oxo-4H-benz[1,4]oxazin-6-yl)-5-fluoro-N2-[3-(1,2,4-oxadiazol-3-yl)phenyl]-2,4-pyrimidinediamine] | > 5.00 | < 5.00 |  |  |  |
| COC(=O)c1cc(Nc2ncc(F)c(Nc3ccc(OC)c(OC)c3)n2)cc(-c2ncco2)c1 [Compound 515, N4-(3,4-Dimethoxyphenyl)-5-fluoro-N2-[5-methoxycarbonyl-3-(oxazol-2-yl)phenyl]-2,4-pyrimidinediamine] | > 5.00 | < 5.00 |  |  |  |
| COC(=O)c1cc(Nc2ncc(F)c(Nc3ccc4c(c3)OCCO4)n2)cc(-c2ncco2)c1 [Compound 516, N4-(3,4-Ethylenedioxyphenyl)-5-fluoro-N2-[5-methoxycarbonyl-3-(oxazol-2-yl)phenyl]-2,4-pyrimidinediamine] | < 5.00 | < 5.00 |  |  |  |
| COC(=O)c1cc(Nc2ncc(F)c(Nc3ccc4c(c3)NC(=O)C(C)(C)O4)n2)cc(-c2ncco2)c1 [Compound 517, N4-(2,2-Dimethyl-3-oxo-4H-benz[1,4]oxazin-6-yl)-5-fluoro-N2-[5-methoxycarbonyl-3-(oxazol-2-yl)phenyl]-2,4-pyrimidinediamine] | < 5.00 | < 5.00 |  |  |  |
| COC(=O)c1cc(Nc2ncc(F)c(Nc3cccc(O)c3)n2)cc(-c2ncco2)c1 [Compound 518, 5-Fluoro-N4-(3-hydroxyphenyl)-N2-[5-methoxycarbonyl-3-(oxazol-2-yl)phenyl]-2,4-pyrimidinediamine] | > 5.00 | < 5.00 |  |  |  |
| Fc1cnc(Nc2cc(-c3ncco3)cc(C(F)(F)F)c2)nc1Nc1ccc2c(c1)OCCO2 [Compound 519, N4-(3,4-Ethylenedioxyphenyl)-5-fluoro-N2-[3-(oxazol-2-yl)-5-trifluoromethylphenyl]-2,4-pyrimidinediamine] | > 5.00 | < 5.00 |  |  |  |
| COc1ccc(Nc2nc(Nc3cc(-c4ncco4)cc(C(F)(F)F)c3)ncc2F)cc1OC [Compound 520, N4-(3,4-Dimethoxyphenyl)-5-fluoro-N2-[3-(oxazol-2-yl)-5-trifluoromethylphenyl]-2,4-pyrimidinediamine] | > 5.00 | < 5.00 |  |  |  |
| CC1(C)Oc2ccc(Nc3nc(Nc4cc(-c5ncco5)cc(C(F)(F)F)c4)ncc3F)cc2NC1=O [Compound 521, N4-(2,2-Dimethyl-3-oxo-4H-benz[1,4]oxazin-6-yl)-5-fluoro-N2-[3-(oxazol-2-yl)-5-trifluoromethylphenyl]-2,4-pyrimidinediamine] | > 5.00 | < 5.00 |  |  |  |
| CC(C)Oc1ccc(N(C)c2nc(Cl)ncc2F)cn1 [Compound 576] |  |  | < 5.00 | < 5.00 |  |
| CNC(=O)COc1c(C)cc(Nc2ncc(F)c(N(C)c3ccc(OC)c(Cl)c3)n2)cc1C [Compound 579, N4-(3-Chloro-4-methoxyphenyl)-N2-[3,5-dimethyl-4-(N-methylamino)carbonylmethyleneoxyphenyl]-5-fluoro-N4-methyl-2,4-pyrimidinediamine] |  |  |  |  | pIC50 [1, 10]: > 5.00; pIC50 [2, 11]: < 5.00 |
| CNC(=O)COc1cccc(Nc2ncc(F)c(N(C)c3ccc(OC)c(Cl)c3)n2)c1 [Compound 580, N4-(3-Chloro-4-methoxyphenyl)-N2-[3-(N-methylamino)carbonylmethyleneoxyphenyl]-5-fluoro-N4-methyl-2,4-pyrimidinediamine] |  |  |  |  | pIC50 [1, 10]: > 5.00; pIC50 [2, 11]: < 5.00 |
| CNC(=O)COc1cccc(Nc2ncc(F)c(N(C)c3ccc(OC(C)C)nc3)n2)c1 [Compound 582, 5-Fluoro-N4-(2-isopropoxypyrid-5-yl)-N4-methyl-N2-[3-(N-methylamino)carbonylmethyleneoxyphenyl]-2,4-pyrimidinediamine] |  |  |  |  | pIC50 [1, 10]: > 5.00; pIC50 [2, 11]: < 5.00 |
| CNC(=O)COc1cccc(Nc2ncc(F)c(N(C)c3ccc(Cl)c(OC)c3)n2)c1 [Compound 589, N4-(4-Chloro-3-methoxyphenyl)-5-fluoro-N4-methyl-N2-[3-(N-methylamino)carbonylmethyleneoxyphenyl]-2,4-pyrimidinediamine] |  |  |  |  | pIC50 [1, 10]: > 5.00; pIC50 ([1]; low cell density CHMC, tryptase release, 8 point, read-out: LD Tryptase, CHMC, IgE, 8 pt): > 5.00; pIC50 [2, 11]: < 5.00 |

The next lines start with results.

| pIC50 [1, 5] | pIC50 [2, 6] | pIC50 [1, 8] | pIC50 [2, 9] | Structure (SMILES) | other results |
| --- | --- | --- | --- | --- | --- |
| > 5.00 | < 5.00 |  |  | CNS(=O)(=O)c1ccc(Nc2nc(Nc3cc(OC)cc(OC)c3)ncc2F)cc1OC [Compound 507] | pIC50 [1, 7]: > 5.00 |
| > 5.00 | < 5.00 |  |  | COc1cc(Nc2ncc(F)c(Nc3ccc(Cl)cn3)n2)cc(OC)c1 [Compound 510] | pIC50 [1, 7]: > 5.00 |
| > 5.00 | < 5.00 |  |  | COc1ccc(Nc2nc(Nc3cccc(-c4ncon4)c3)ncc2F)cc1OC [Compound 513] |  |
|  |  | > 5.00 | < 5.00 | COc1cc(Nc2ncc(F)c(N(C)c3ccc(OC)c(Cl)c3)n2)cc(OC)c1 [Compound 577] |  |
|  |  | > 5.00 | < 5.00 | COc1ccc(N(C)c2nc(Nc3cc(C)c(OC)c(Cl)c3)ncc2F)cc1Cl [Compound 578, N2-(3-Chloro-4-methoxy-5-methylphenyl)-N4-(3-chloro-4-methoxyphenyl)-5-fluoro-N4-methyl-2,4-pyrimidinediamine] |  |
|  |  | > 5.00 | < 5.00 | COc1cc(Nc2ncc(F)c(N(C)c3ccc(OC(C)C)nc3)n2)cc(OC)c1 [Compound 581, N2-(3,5-Dimethoxyphenyl)-5-fluoro-N4-(2-isopropoxypyrid-5-yl)-N4-methyl-2,4-pyrimidinediamine] |  |
|  |  | > 5.00 | < 5.00 | Cc1cc(C)cc(Nc2ncc(F)c(N(C)c3ccc(OC(C)C)nc3)n2)c1 [Compound 583, N2-(3,5-Dimethylphenyl)-5-fluoro-N4-(2-isopropoxypyrid-5-yl)-N4-methyl-2,4-pyrimidinediamine] |  |
|  |  | > 5.00 | < 5.00 | COc1ccc(N(C)c2nc(Nc3cc(C)cc(C)c3)ncc2F)cc1Cl [Compound 584] |  |
|  |  | < 5.00 | < 5.00 | COC(=O)c1cc2cc(Nc3ncc(F)c(N(C)c4ccc(OC)c(Cl)c4)n3)ccc2o1 [Compound 585, N4-(3-Chloro-4-methoxyphenyl)-5-fluoro-N2-(2-methoxycarbonylbenzofuran-5-yl)-N4-methyl-2,4-pyrimidinediamine] |  |
|  |  | > 5.00 | > 5.00 | COC(=O)c1cc2cc(Nc3ncc(F)c(N(C)c4ccc(OC(C)C)nc4)n3)ccc2o1 [Compound 586, 5-Fluoro-N4-(2-isopropoxypyrid-5-yl)-N2-(2-methoxycarbonylbenzofuran-5-yl)-N4-methyl-2,4-pyrimidinediamine] |  |
|  |  | > 5.00 | < 5.00 | COc1cc(Nc2ncc(F)c(N(C)c3ccc(Cl)c(OC)c3)n2)cc(OC)c1 [Compound 587, N4-(4-Chloro-3-methoxyphenyl)-N2-(3,5-dimethoxyphenyl)-5-fluoro-N4-methyl-2,4-pyrimidinediamine] | pIC50 [1, 12]: > 5.00 |
|  |  | > 5.00 | < 5.00 | COc1cc(N(C)c2nc(Nc3cc(C)cc(C)c3)ncc2F)ccc1Cl [Compound 588] |  |
|  |  | > 5.00 | < 5.00 | COc1cc(N(C)c2nc(Nc3ccc4[nH]ccc4c3)ncc2F)ccc1Cl [Compound 590, N4-(4-Chloro-3-methoxyphenyl)-5-fluoro-N2-(indol-5-yl)-N4-methyl-2,4-pyrimidinediamine] | pIC50 [1, 12]: > 5.00 |
|  |  | > 5.00 | < 5.00 | COc1cc(Nc2ncc(F)c(N(C)c3cc(C)c(Cl)c(C)c3)n2)cc(OC)c1 [Compound 591] | pIC50 [1, 12]: > 5.00 |
|  |  | < 5.00 | < 5.00 | Cc1cc(C)cc(Nc2ncc(F)c(N(C)c3cc(C)c(Cl)c(C)c3)n2)c1 [Compound 592] |  |

Source: patent US20220073536A1 (Rigel Pharmaceuticals, Inc., priority 2003, published 2022)
